Reference: ChEMBL document CHEMBL5649168, “Discovery of a selective catalytic p300/CBP inhibitor that targets lineage-specific tumours” (Nature, 2017)

What was measured:
KARPAS-299 = experiment: Antiproliferative activity against human KARPAS-299 cells assessed as inhibition of cell viability incubated for 3 to 5 days by Celltiter-Glo luminescent assay; format: functional, cell-based
[1] = target: Bromodomain-containing protein 3 (Homo sapiens, UniProt Q15059); experiment: Inhibition of BRD3 (unknown origin)
[2] = Inhibition of CDK9/Cyclin K (unknown origin); set-up: species or system Homo sapiens
MDA-MB-468 = experiment: Antiproliferative activity against human MDA-MB-468 cells assessed as inhibition of cell viability incubated for 3 to 5 days by Celltiter-Glo luminescent assay; format: functional, cell-based
HCC1187 = experiment: Antiproliferative activity against human HCC1187 cells assessed as inhibition of cell viability incubated for 3 to 5 days by Celltiter-Glo luminescent assay; format: functional, cell-based
NCI-H727 = experiment: Antiproliferative activity against human NCI-H727 cells assessed as inhibition of cell viability incubated for 3 to 5 days by Celltiter-Glo luminescent assay; format: functional, cell-based
[3] = target: Tyrosine-protein kinase JAK2 (Homo sapiens, UniProt O60674); experiment: Inhibition of JAK2 (unknown origin)
NCI-H2081 = experiment: Antiproliferative activity against human NCI-H2081 cells assessed as inhibition of cell viability incubated for 3 to 5 days by Celltiter-Glo luminescent assay; format: functional, cell-based
MDA-MB-453 = experiment: Antiproliferative activity against human MDA-MB-453 cells assessed as inhibition of cell viability incubated for 3 to 5 days by Celltiter-Glo luminescent assay; format: functional, cell-based
[4] = target: Serine/threonine-protein kinase pim-1 (Homo sapiens, UniProt P11309); experiment: Inhibition of Pim1 (unknown origin)
KARPAS-422 = experiment: Antiproliferative activity against human KARPAS-422 cells assessed as inhibition of cell viability incubated for 3 to 5 days by Celltiter-Glo luminescent assay; format: functional, cell-based
[5] = target: Ribosomal protein S6 kinase alpha-3 (Homo sapiens, UniProt P51812); experiment: Inhibition of Rsk2 (unknown origin)
[6] = target: Mitogen-activated protein kinase 8 (Homo sapiens, UniProt P45983); experiment: Inhibition of JNK1 (unknown origin)
[7] = target: Calcium/calmodulin-dependent protein kinase kinase 2 (Homo sapiens, UniProt Q96RR4); experiment: Inhibition of CAMKK2 (unknown origin)
JVM-2 = experiment: Antiproliferative activity against human JVM-2 cells assessed as inhibition of cell viability incubated for 3 to 5 days by Celltiter-Glo luminescent assay; format: functional, cell-based
NCI-H146 = experiment: Antiproliferative activity against human NCI-H146 cells assessed as inhibition of cell viability incubated for 3 to 5 days by Celltiter-Glo luminescent assay; format: functional, cell-based
[8] = target: T1, Histone acetyltransferase p300 (Homo sapiens, UniProt Q09472)
Description: Binding affinity to p300-BHC (unknown origin) assessed as change in melting temperature in presence of Lys-CoA by sypro orange dye based thermal shift assay

[9] = target: Macrophage colony-stimulating factor 1 receptor (Homo sapiens, UniProt P07333); experiment: Inhibition of CSF1R (unknown origin)
Hs 294T = experiment: Antiproliferative activity against human Hs294T cells assessed as inhibition of cell viability incubated for 3 to 5 days by Celltiter-Glo luminescent assay; format: functional, cell-based
BT-20 = experiment: Antiproliferative activity against human BT-20 cells assessed as inhibition of cell viability incubated for 3 to 5 days by Celltiter-Glo luminescent assay; format: functional, cell-based
[10] = target: Platelet-derived growth factor receptor alpha (Homo sapiens, UniProt P16234); experiment: Inhibition of PDGFRalpha (unknown origin)
HCC1599 = experiment: Antiproliferative activity against human HCC1599 cells assessed as inhibition of cell viability incubated for 3 to 5 days by Celltiter-Glo luminescent assay; format: functional, cell-based
Hs 695T = experiment: Antiproliferative activity against human Hs 695T cells assessed as inhibition of cell viability incubated for 3 to 5 days by Celltiter-Glo luminescent assay; format: functional, cell-based
[11] = target: Serine/threonine-protein kinase 4 (Homo sapiens, UniProt Q13043); experiment: Inhibition of MST1 (unknown origin)
[12] = target: Tyrosine-protein kinase BTK (Homo sapiens, UniProt Q06187); experiment: Inhibition of BTK (unknown origin)
[13] = target: Protein kinase C theta type (Homo sapiens, UniProt Q04759); experiment: Inhibition of PKCtheta (unknown origin)
HCC1806 = experiment: Antiproliferative activity against human HCC1806 cells assessed as inhibition of cell viability incubated for 3 to 5 days by Celltiter-Glo luminescent assay; format: functional, cell-based
SK-MEL-24 = experiment: Antiproliferative activity against human SK-MEL-24 cells assessed as inhibition of cell viability incubated for 3 to 5 days by Celltiter-Glo luminescent assay; format: functional, cell-based
HCC2935 = experiment: Antiproliferative activity against human HCC2935 cells assessed as inhibition of cell viability incubated for 3 to 5 days by Celltiter-Glo luminescent assay; format: functional, cell-based
[14] = target: NT-3 growth factor receptor (Homo sapiens, UniProt Q16288); experiment: Inhibition of TrkC (unknown origin)
HCC1143 = experiment: Antiproliferative activity against human HCC1143 cells assessed as inhibition of cell viability incubated for 3 to 5 days by Celltiter-Glo luminescent assay; format: functional, cell-based
[15] = target: Platelet-derived growth factor receptor beta (Homo sapiens, UniProt P09619); experiment: Inhibition of PDGFRbeta (unknown origin)
MDA-MB-436 = experiment: Antiproliferative activity against human MDA-MB-436 cells assessed as inhibition of cell viability incubated for 3 to 5 days by Celltiter-Glo luminescent assay; format: functional, cell-based
[16] = target: ALK tyrosine kinase receptor (Homo sapiens, UniProt Q9UM73); experiment: Inhibition of ALK (unknown origin)
[17] = target: T1, Histone acetyltransferase p300; remark: listed apart in the source
SU-DHL-8 = experiment: Antiproliferative activity against human SU-DHL-8 cells assessed as inhibition of cell viability incubated for 3 to 5 days by Celltiter-Glo luminescent assay; format: functional, cell-based
MM1.S = experiment: Antiproliferative activity against human MM1.S cells assessed as inhibition of cell viability incubated for 3 to 5 days by Celltiter-Glo luminescent assay; format: functional, cell-based
[18] = target: Dual specificity protein kinase CLK2 (Homo sapiens, UniProt P49760); experiment: Inhibition of CLK2 (unknown origin)
[19] = target: Tyrosine-protein kinase ABL1 (Homo sapiens, UniProt P00519); experiment: Inhibition of Abl (unknown origin)
OCI-AML-5 = experiment: Antiproliferative activity against human OCI-AML5 cells assessed as inhibition of cell viability incubated for 3 to 5 days by Celltiter-Glo luminescent assay; format: functional, cell-based
Ramos = experiment: Antiproliferative activity against human Ramos cells assessed as inhibition of cell viability incubated for 3 to 5 days by Celltiter-Glo luminescent assay; format: functional, cell-based
NU-DUL-1 = experiment: Antiproliferative activity against human NU-DUL-1 cells assessed as inhibition of cell viability incubated for 3 to 5 days by Celltiter-Glo luminescent assay; format: functional, cell-based
cells = details: Homo sapiens, SC-1
[20] = Tmax in CB17 SCID mouse xenografted with LuCaP-77 CR cell at 200 mg/kg, ip administered for 7 days; format: ADME, organism-based; details: in vivo, time 7 day

T1 sequence (Q09472 whole entry): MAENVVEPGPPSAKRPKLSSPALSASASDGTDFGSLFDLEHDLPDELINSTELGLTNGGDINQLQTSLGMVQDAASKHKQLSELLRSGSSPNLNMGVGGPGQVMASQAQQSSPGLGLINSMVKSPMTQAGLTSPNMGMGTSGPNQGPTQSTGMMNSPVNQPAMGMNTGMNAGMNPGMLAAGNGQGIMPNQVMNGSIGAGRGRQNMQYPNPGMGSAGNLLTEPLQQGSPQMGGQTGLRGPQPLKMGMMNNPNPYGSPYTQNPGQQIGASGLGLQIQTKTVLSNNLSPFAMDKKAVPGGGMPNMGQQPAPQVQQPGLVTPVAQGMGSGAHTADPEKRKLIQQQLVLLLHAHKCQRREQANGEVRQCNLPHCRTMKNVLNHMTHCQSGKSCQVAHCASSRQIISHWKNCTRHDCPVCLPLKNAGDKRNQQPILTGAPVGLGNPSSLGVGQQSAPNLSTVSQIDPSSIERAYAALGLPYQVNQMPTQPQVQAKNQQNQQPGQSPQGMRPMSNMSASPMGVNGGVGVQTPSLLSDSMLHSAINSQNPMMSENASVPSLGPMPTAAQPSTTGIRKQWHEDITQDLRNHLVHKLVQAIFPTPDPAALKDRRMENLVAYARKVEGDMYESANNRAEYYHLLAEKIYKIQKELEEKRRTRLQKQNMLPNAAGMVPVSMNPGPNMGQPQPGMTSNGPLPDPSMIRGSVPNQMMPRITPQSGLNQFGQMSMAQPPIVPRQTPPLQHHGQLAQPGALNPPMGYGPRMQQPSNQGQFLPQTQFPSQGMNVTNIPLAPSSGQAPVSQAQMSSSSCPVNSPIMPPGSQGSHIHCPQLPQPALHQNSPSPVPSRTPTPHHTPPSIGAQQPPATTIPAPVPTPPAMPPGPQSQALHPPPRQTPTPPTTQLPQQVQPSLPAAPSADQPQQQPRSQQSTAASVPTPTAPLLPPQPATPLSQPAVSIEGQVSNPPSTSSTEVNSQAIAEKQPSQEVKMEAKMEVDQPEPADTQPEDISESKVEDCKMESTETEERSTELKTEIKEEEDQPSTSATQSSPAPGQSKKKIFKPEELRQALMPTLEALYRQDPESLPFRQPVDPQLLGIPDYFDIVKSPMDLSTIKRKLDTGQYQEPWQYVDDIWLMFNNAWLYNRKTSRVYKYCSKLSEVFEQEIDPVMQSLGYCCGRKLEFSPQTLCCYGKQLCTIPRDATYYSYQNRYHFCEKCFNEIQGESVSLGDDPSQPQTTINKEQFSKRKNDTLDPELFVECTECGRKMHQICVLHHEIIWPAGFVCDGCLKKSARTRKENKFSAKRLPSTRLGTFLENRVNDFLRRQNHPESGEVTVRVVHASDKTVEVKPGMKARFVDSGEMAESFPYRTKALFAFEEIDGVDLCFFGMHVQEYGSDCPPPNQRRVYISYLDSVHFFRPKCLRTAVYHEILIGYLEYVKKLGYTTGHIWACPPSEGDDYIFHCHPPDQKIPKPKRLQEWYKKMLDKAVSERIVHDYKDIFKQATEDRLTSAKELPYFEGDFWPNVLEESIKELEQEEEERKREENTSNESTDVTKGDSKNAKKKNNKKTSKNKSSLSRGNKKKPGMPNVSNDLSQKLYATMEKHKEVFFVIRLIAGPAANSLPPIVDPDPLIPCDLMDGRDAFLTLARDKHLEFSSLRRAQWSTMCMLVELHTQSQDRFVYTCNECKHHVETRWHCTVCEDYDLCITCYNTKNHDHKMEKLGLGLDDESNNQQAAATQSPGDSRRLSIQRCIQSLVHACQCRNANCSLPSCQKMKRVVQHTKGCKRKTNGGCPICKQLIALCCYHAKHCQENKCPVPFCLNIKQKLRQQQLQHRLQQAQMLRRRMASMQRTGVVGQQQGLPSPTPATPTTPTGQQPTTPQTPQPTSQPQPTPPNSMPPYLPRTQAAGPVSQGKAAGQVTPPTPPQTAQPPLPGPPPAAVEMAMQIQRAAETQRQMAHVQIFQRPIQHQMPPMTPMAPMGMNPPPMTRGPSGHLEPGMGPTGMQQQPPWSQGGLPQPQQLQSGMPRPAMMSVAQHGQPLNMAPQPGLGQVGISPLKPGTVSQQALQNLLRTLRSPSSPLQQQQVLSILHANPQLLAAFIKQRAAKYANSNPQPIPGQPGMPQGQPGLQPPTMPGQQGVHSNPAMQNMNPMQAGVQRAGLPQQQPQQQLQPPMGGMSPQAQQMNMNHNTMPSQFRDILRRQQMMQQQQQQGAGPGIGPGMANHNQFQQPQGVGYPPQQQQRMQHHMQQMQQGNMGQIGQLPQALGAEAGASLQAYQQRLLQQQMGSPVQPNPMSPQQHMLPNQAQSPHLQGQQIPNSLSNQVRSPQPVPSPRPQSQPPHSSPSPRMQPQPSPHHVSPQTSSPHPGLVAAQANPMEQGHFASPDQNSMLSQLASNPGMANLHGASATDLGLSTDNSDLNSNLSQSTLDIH
Chain of Mitogen-activated protein kinase 8 (P45983 whole entry): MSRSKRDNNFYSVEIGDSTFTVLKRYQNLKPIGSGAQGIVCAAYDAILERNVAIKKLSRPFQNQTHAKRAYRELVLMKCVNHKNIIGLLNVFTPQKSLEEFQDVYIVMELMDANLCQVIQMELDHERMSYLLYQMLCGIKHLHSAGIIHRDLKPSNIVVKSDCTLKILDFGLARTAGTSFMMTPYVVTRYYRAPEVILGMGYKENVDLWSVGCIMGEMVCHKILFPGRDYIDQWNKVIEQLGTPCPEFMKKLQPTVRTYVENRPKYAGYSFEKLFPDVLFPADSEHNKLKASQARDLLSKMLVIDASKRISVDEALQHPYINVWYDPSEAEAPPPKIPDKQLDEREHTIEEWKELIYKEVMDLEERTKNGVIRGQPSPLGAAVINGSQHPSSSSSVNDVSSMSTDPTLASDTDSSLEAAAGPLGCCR
Chain of NT-3 growth factor receptor (Q16288 whole entry): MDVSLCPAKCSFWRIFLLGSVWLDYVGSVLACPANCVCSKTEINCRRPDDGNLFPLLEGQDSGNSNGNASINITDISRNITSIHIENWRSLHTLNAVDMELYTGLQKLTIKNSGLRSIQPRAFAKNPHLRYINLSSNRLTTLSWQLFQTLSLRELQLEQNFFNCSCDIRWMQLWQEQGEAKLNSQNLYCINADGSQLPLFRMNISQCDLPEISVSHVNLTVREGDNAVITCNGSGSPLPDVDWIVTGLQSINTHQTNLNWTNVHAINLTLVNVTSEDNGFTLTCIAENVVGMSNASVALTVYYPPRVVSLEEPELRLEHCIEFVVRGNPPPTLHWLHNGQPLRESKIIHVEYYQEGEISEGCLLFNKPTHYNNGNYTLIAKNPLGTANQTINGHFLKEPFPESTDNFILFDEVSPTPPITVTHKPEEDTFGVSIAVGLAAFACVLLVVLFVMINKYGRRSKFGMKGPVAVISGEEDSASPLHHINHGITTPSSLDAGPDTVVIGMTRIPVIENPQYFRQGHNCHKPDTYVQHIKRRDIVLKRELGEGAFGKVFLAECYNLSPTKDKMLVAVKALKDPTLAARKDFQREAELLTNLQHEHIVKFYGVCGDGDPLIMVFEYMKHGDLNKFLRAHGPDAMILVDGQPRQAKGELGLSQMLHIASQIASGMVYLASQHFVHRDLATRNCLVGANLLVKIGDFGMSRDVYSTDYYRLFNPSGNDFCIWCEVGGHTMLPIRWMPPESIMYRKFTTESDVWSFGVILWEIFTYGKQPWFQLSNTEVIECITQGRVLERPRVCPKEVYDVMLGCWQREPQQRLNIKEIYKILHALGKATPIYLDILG
Chain of Tyrosine-protein kinase BTK (Q06187 whole entry): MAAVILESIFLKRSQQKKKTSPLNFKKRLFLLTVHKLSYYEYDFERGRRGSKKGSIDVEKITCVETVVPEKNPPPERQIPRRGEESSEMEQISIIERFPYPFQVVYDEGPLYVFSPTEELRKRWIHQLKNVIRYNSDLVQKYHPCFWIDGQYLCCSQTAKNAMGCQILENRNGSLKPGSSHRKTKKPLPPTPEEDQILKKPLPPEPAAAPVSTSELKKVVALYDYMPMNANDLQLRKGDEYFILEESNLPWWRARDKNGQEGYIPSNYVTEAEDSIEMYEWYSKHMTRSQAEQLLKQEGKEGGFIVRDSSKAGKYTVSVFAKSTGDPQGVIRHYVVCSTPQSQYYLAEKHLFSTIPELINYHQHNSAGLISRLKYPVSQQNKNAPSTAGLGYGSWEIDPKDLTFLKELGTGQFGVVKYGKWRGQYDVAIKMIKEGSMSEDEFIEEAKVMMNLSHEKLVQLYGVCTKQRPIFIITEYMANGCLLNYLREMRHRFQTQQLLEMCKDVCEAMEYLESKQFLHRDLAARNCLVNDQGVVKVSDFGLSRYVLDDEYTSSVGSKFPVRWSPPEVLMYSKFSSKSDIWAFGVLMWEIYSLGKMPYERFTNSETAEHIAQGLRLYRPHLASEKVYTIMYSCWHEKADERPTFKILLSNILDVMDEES
Chain of Dual specificity protein kinase CLK2 (P49760 whole entry): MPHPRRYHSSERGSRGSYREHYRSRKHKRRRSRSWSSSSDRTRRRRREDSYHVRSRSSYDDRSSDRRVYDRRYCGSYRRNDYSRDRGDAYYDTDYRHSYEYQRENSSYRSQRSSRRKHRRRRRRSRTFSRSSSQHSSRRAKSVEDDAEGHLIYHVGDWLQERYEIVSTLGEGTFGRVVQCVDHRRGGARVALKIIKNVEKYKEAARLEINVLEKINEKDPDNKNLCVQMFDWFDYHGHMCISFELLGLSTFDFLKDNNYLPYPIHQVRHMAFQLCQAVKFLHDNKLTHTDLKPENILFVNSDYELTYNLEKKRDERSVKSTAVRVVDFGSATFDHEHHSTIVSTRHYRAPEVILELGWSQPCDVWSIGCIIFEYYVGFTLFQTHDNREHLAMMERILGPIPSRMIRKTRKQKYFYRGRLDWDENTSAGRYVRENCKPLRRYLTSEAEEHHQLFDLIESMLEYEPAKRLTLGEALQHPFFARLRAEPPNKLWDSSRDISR

Question: With `CNC(=O)Nc1ccc2c(c1)CC[C@@]21OC(=O)N(CC(=O)N(Cc2ccc(F)cc2)[C@@H](C)C(F)(F)F)C1=O` [A-485] as the molecule, how does the EC50 (KARPAS-299) read?
Answer: > 10 µM

Question: And the IC50 [1]?
Answer: > 10 µM

Question: What about the IC50 [2] of the same molecule?
Answer: > 10 µM

Question: What about the EC50 (MDA-MB-468) of the same molecule?
Answer: 0.38 µM

Question: And the EC50 (HCC1187)?
Answer: > 10 µM

Question: And the EC50 (NCI-H727)?
Answer: 6.63 µM

Question: What about the IC50 [3] of the same molecule?
Answer: > 10 µM

Question: And the EC50 (NCI-H2081)?
Answer: > 10 µM

Question: And the EC50 (MDA-MB-453)?
Answer: 1.87 µM

Question: What about the IC50 [4] of the same molecule?
Answer: > 10 µM

Question: And the EC50 (KARPAS-422)?
Answer: 0.25 µM

Question: And the IC50 [5]?
Answer: > 10 µM

Question: What about the IC50 [6] of the same molecule?
Answer: > 10 µM

Question: What about the IC50 [7] of the same molecule?
Answer: > 10 µM

Question: And the EC50 (JVM-2)?
Answer: > 10 µM

Question: What about the EC50 (NCI-H146) of the same molecule?
Answer: 0.4 µM

Question: What about the ΔTm [8] of the same molecule?
Answer: 5.8 °C

Question: And the IC50 [9]?
Answer: > 10 µM

Question: And the EC50 (Hs 294T)?
Answer: 9 µM

Question: What about the EC50 (BT-20) of the same molecule?
Answer: 0.34 µM

Question: And the IC50 [10]?
Answer: > 10 µM

Question: And the EC50 (HCC1599)?
Answer: 4.85 µM

Question: What about the EC50 (Hs 695T) of the same molecule?
Answer: 3.57 µM

Question: And the IC50 [11]?
Answer: > 10 µM

Question: And the IC50 [12]?
Answer: > 10 µM

Question: What about the IC50 [13] of the same molecule?
Answer: > 10 µM

Question: What about the EC50 (HCC1806) of the same molecule?
Answer: 2.95 µM

Question: And the EC50 (SK-MEL-24)?
Answer: > 10 µM

Question: And the EC50 (HCC2935)?
Answer: > 10 µM

Question: What about the IC50 [14] of the same molecule?
Answer: > 10 µM

Question: What about the EC50 (HCC1143) of the same molecule?
Answer: > 10 µM

Question: What about the IC50 [15] of the same molecule?
Answer: > 10 µM

Question: And the EC50 (MDA-MB-436)?
Answer: > 10 µM

Question: And the IC50 [16]?
Answer: > 10 µM

Question: What about the T1/2 [17] of the same molecule?
Answer: 8.85 min

Question: And the EC50 (SU-DHL-8)?
Answer: 0.54 µM

Question: And the EC50 (MM1.S)?
Answer: 0.18 µM

Question: What about the IC50 [18] of the same molecule?
Answer: > 10 µM

Question: And the IC50 [19]?
Answer: > 10 µM

Question: And the EC50 (OCI-AML-5)?
Answer: 4.86 µM

Question: What about the EC50 (Ramos) of the same molecule?
Answer: 0.93 µM

Question: And the EC50 (NU-DUL-1)?
Answer: 0.48 µM

Question: And the EC50 (cells)?
Answer: 1.69 µM

Question: And the Tmax [20]?
Answer: 6 h
